Data as given in US10842804B2 (MEDIGEN BIOTECHNOLOGY CORP., priority 2017, dated 2020).

Test: Phase III trial: safety profiles, treatment completion and compliance
Conditions: in vivo
Method: After signing the consent form, the eligibility of each patient was verified according to the enrollment criteria by checking his/her medical records and current disease conditions. Eligible patients were stratified by tumor size (<5 cm vs. ≥5 cm) and vascular invasion (no vs. yes) and then randomized at a ratio of 1:1 within strata to receive PI-88 (160 mg/day) or a placebo by using a centralized interactive web response system (Cenduit Interactive Response Technology; Cenduit, Durham, N.C., USA).
PI-88 or placebo was administered in a single subcutaneous injection each day for four consecutive days per week for 3 weeks out of every 4 weeks (a cycle with 4-weeks). The days of injection were the same in every administration week. After an initial training period of 1-8 days, participants self-administered the study drug at home. Participants received treatment for up to 52 weeks and were followed until 96 weeks.
If the antiheparin antibody test was positive, the participant was asked to permanently discontinue the treatment.
The distributional properties of continuous variables are expressed as mean t standard deviation, categorical variables are presented as frequency and percentage (%), and the survival curves of the DFS period were estimated using the Kaplan-Meier method. Baseline demographic and clinical characteristics were compared between the PI-88 and placebo groups. […]

muparfostat [PI-88]
fatal AEs during the study treatment period: No patients
